The text below walks through data of ChEMBL document CHEMBL1201862, “PubChem BioAssay data set” (2004).

Test systems include TK-10; UACC-257; SK-OV-3; RPMI-8226; NCI-H522; OVCAR-8; LOX IMVI; Malme-3M; OVCAR-3; HOP-62; 786-0; SF-295; OVCAR-5; OVCAR-4; SR; UACC-62; IGROV-1; CCRF-CEM; RXF 393; MOLT-4.
Holding throughout (assay): NCI-60 cell line screen, 48 h

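Compound exposure: 48 hours, 5 concentrations, 96-well plates. Here, GI50 denotes the concentration required for 50% inhibition of growth.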 Activity calls are given as the source filed them. No stated cut-off is given here; in the data, active = GI50 up to about 1.1 µM and inactive = higher. Bounds are passed on as bounds.

On to `CC(C)c1nccn1Cc1ccc(Cl)cc1Cl`, for which the GI50 with TK-10 is 37.6 µM (inactive); with UACC-257, 17.7 µM (inactive); with SK-OV-3, 47.9 µM (inactive); in the experiment on RPMI-8226 it was 16 µM (inactive); in the experiment with NCI-H522, 21.2 µM (inactive); in the experiment with OVCAR-8 it was 46.2 µM (inactive). The GI50 in the experiment with LOX IMVI was 43.6 µM (inactive); in the experiment with Malme-3M, 41.2 µM (inactive); in the experiment with OVCAR-3, 27.2 µM (inactive); with HOP-62 it was 66.7 µM (inactive); with 786-0 it was 38 µM (inactive); in the experiment with SF-295, 14.5 µM (inactive). The GI50 is 27.7 µM (inactive) in the experiment on OVCAR-5; 52.5 µM (inactive) with OVCAR-4; 44.4 µM (inactive) with SR; 43.8 µM (inactive) in the experiment on UACC-62; > 100 µM (inactive) with IGROV-1.

Consider `Cc1ccc(S(=O)(=O)N(c2ccccc2F)C2CCCCC2O)cc1` (centres undefined), for which the GI50 is 97.1 µM (inactive) with TK-10; 0.214 µM (active) in the experiment with UACC-257; 22.3 µM (inactive) in the experiment on SK-OV-3; 36.9 µM (inactive) with RPMI-8226; 78 µM (inactive) with OVCAR-8; 38.8 µM (inactive) in the experiment on LOX IMVI. Further, the GI50 is 58.7 µM (inactive) in the experiment with Malme-3M; 29.5 µM (inactive) with OVCAR-3; 96.2 µM (inactive) with HOP-62; 65.6 µM (inactive) with 786-0; > 100 µM (inactive) in the experiment with SF-295; > 100 µM (inactive) with OVCAR-5. Also, the GI50 in the experiment on OVCAR-4 was 39.5 µM (inactive); in the experiment on CCRF-CEM, 56.9 µM (inactive); in the experiment on SR, 24.4 µM (inactive); with UACC-62, 46.9 µM (inactive).

For the compound `Cc1cc(N(CCC#N)CCC#N)ccc1/N=N/c1cc(Cl)ccc1Cl`, the GI50 with TK-10 was 11.1 µM (inactive); with UACC-257, 10.7 µM (inactive); in the experiment on SK-OV-3 it was 16.3 µM (inactive); in the experiment with RXF 393, 10.5 µM (inactive); in the experiment with RPMI-8226, 5.35 µM (inactive); in the experiment with MOLT-4, 5.13 µM (inactive). Also, the GI50 is 1.49 µM (inactive) in the experiment on NCI-H522; 7.74 µM (inactive) in the experiment with OVCAR-8; 3.62 µM (inactive) with LOX IMVI; 4.98 µM (inactive) in the experiment with Malme-3M; 5.51 µM (inactive) in the experiment with OVCAR-3; 19.5 µM (inactive) with HOP-62. The GI50 is 14.6 µM (inactive) in the experiment on 786-0; 19.6 µM (inactive) in the experiment on SF-295; 14.4 µM (inactive) with OVCAR-5; 3.07 µM (inactive) in the experiment with OVCAR-4; 2.92 µM (inactive) with CCRF-CEM; 10.1 µM (inactive) in the experiment with UACC-62. For the same compound, the GI50 in the experiment with IGROV-1 is 15.1 µM (inactive).

For the compound `Cc1ccc2oc(=O)c(-c3ccccc3)nc2c1`, the GI50 in the experiment on TK-10 was 34 µM (inactive); with UACC-257, 37.5 µM (inactive); in the experiment on RPMI-8226, 31.5 µM (inactive); with MOLT-4 it was 10.7 µM (inactive); in the experiment on NCI-H522, 15.3 µM (inactive); in the experiment with OVCAR-8 it was 36.4 µM (inactive). The GI50 is 20.2 µM (inactive) with LOX IMVI; 23.4 µM (inactive) with Malme-3M; 46.5 µM (inactive) with OVCAR-3; 36.7 µM (inactive) in the experiment on HOP-62; 23.3 µM (inactive) in the experiment on 786-0; 40.5 µM (inactive) in the experiment with SF-295. Further, the GI50 with OVCAR-5 is 39.4 µM (inactive); in the experiment with OVCAR-4, 23.8 µM (inactive); with CCRF-CEM it was 18.5 µM (inactive); with SR, 29.5 µM (inactive).

Consider `COc1cccc(CCn2c(N)c(C#N)c3ccc([N+](=O)[O-])cc3c2=O)c1`, for which the GI50 with TK-10 was > 46.5 µM (inactive); in the experiment with UACC-257 it was > 31.6 µM (inactive); with SK-OV-3, > 31.6 µM (inactive); in the experiment on MOLT-4, > 31.6 µM (inactive); in the experiment on OVCAR-8, > 46.5 µM (inactive); in the experiment with LOX IMVI it was > 46.5 µM (inactive). For the same compound, the GI50 was > 31.6 µM (inactive) with OVCAR-3; > 31.6 µM (inactive) in the experiment with HOP-62; > 46.5 µM (inactive) with 786-0; > 31.6 µM (inactive) in the experiment with SF-295; > 31.6 µM (inactive) in the experiment on OVCAR-5; > 84.7 µM (inactive) in the experiment with OVCAR-4. The GI50 in the experiment on CCRF-CEM was 4.35 µM (inactive); in the experiment with SR it was 0.073 µM (active); in the experiment on UACC-62, > 31.6 µM (inactive); in the experiment with IGROV-1, > 31.6 µM (inactive).

For `CC1=CCC2CC1C(C(=O)c1c[nH]c3ccccc13)=NC2(C)C` (centres undefined), the GI50 in the experiment on UACC-257 was 27.4 µM (inactive); in the experiment with SK-OV-3 it was 94.4 µM (inactive); in the experiment with RPMI-8226, 25.1 µM (inactive); in the experiment on MOLT-4, 22.9 µM (inactive); in the experiment with NCI-H522, 44.4 µM (inactive); with OVCAR-8 it was 56.5 µM (inactive). Further, the GI50 was 80.9 µM (inactive) with LOX IMVI; > 100 µM (inactive) in the experiment with Malme-3M; > 100 µM (inactive) in the experiment on OVCAR-3; > 100 µM (inactive) with HOP-62; 81.1 µM (inactive) with 786-0; > 100 µM (inactive) in the experiment with OVCAR-5. Besides, the GI50 in the experiment on OVCAR-4 was 40.3 µM (inactive); in the experiment with CCRF-CEM, 22.4 µM (inactive); with SR, 4.5 µM (inactive); in the experiment on UACC-62, 25.2 µM (inactive); in the experiment on IGROV-1 it was > 100 µM (inactive).

For `CC(=O)NC(CCCNC(=O)N(C)N=O)C(=O)NCc1ccccc1` (centres undefined), the GI50 with TK-10, in the experiment with UACC-257, in the experiment with SK-OV-3, in the experiment on RXF 393, in the experiment on RPMI-8226 and with MOLT-4 was > 100 µM (inactive) each time. Further, the GI50 in the experiment on NCI-H522, in the experiment with OVCAR-8, in the experiment on LOX IMVI, in the experiment on Malme-3M, in the experiment on OVCAR-3 and in the experiment on HOP-62 was > 100 µM (inactive) each time. The GI50 in the experiment on 786-0, in the experiment on SF-295, with OVCAR-5, with OVCAR-4, in the experiment with CCRF-CEM and in the experiment on UACC-62 was > 100 µM (inactive) in each case. Moreover, in the experiment with IGROV-1, the GI50 is > 100 µM (inactive).

Regarding `O=C(NCCNCCO)N/N=C/c1cccc([N+](=O)[O-])c1`, the GI50 in the experiment on TK-10, in the experiment with UACC-257, in the experiment on SK-OV-3, with RXF 393, with RPMI-8226 and with MOLT-4 was > 100 µM (inactive) each time. The GI50 in the experiment on NCI-H522, in the experiment on OVCAR-8, in the experiment with LOX IMVI, with Malme-3M, in the experiment on OVCAR-3 and in the experiment with HOP-62 was > 100 µM (inactive) each time. In addition, the GI50 in the experiment on 786-0, with SF-295, in the experiment with OVCAR-5, in the experiment with OVCAR-4, in the experiment with CCRF-CEM and in the experiment on UACC-62 was > 100 µM (inactive) throughout. Further, in the experiment with IGROV-1, the GI50 is > 100 µM (inactive).
